Experimental data taken from patent publication US9504751B2, “Stable pharmaceutical composition” (EVERFRONT BIOTECH INC., priority 2014, dated 2016).
In brackets after ≈: the same amount, converted by molar mass.

Tests used:
[1] = system: 9 L (rat brain gliosarcoma cell line) tumor tissue; assay: Intranasal treatment of rats with intracranially transplanted 9 L tumor; assay type: in vivo
Protocol: 9 L (i.e., a rat brain gliosarcoma cell line) tumor tissue was intracranially transplanted into rats. The test of drug treatment was conducted after the intracranial tumor formed. The test method includes: (i) using 400 mg/kg of chloral hydrate (Sigma-Aldrich Company Ltd.) to anesthetize the rats, shaving the hair on the head of rats after the rats were in a coma, and fixing the rats in a stereotaxic instrument (Lab Standard™ Stereotaxic Instrument); (ii) scissoring the scalp by shears to expose the cranium, setting the bregma as a center, and drilling a 5 mm hole at the positioned drilling site 3 mm right to and 5 mm below the bregma on the cranium by a drill; (iii) clamping the prepared 9 L tumor tissue (1×1×1 mm^3) by a forceps and transplanting it into 3 mm depths within the brain, and then, resting for 1 minute to coagulate the blood, removing the forceps, and coating the bone wax on the hole, lastly, suturing the scalp of rats and administering the rats with antibiotics; (iv) 7 days after the transplantation of tumor tissue, randomly grouping the rats as the following Table 11, and then, sucking a drug (n-butylidenephthalide (BP) or pharmaceutical composition 5) by a pipette and dropping the drug into the nasal cavity of the rats to conduct an intranasal administration, and repeating the administration for 30 days and recording the body weight of rats and the number of dead rats during this medical treatment; and (v) removing the tumor, and then, measuring the length-breadth of tumor by an electronic vernier caliper and calculating the total volume of tumor by using the following Formula 3, measuring the weight of tumor at the same time, and drawing the obtained values into a bar diagram and a curve diagram, to determine the therapeutic effect.

[2] = system: GBM 8401 cells; assay: Cytotoxicity test (IC50 value), MTT cell survival assay; assay type: cell-based; conditions: Homo sapiens, 24 hours
Protocol: GBM 8401 cells (i.e., a human brain glioblastoma multiforme cell line) were cultured in a 96-well culture plate with a cell number of 6×10^3 per well, and treated with pure n-butylidenephthalide (BP) or one of the pharmaceutical compositions for 24 hours. The treatment concentrations of active ingredient, n-butylidenephthalide (BP), were 0 μg/mL (i.e., control group), 12.5 μg/mL, 25 μg/mL, 50 μg/mL, 100 μg/mL and 200 μg/mL, respectively. Then, the half maximal inhibitory concentration (IC50) of each pharmaceutical composition to GBM 8401 cells was analyzed by MTT (3-(4,5-cimethylthiazol-2-yl)-2,5-diphenyl tetrazolium bromide) cell survival assay, to evaluate the cytotoxic effect.

[3] = Solubility of n-butylidenephthalide in solvents; assay type: physicochemical; conditions: organic solvent or mixture
[4] = system: RPMI 2650 cells; assay: In vitro cell line permeation test; assay type: in vitro ADME, human; conditions: RPMI 2650 cellular monolayer, 37° C., 6 hours
Protocol: (§1) [formula] V: Capacity of receptor chamber (mL) C0: Initial supplied concentration of drug (μg/mL) Peff: Permeability coefficient (cm/s) J: Flux (μg/cm^2·s) A: Superficial area of diffusion (cm^2)
(§2) [formula] Change of the concentration along with time under a stable status (μg/mLs)
(§3) RPMI 2650 cells (i.e., a human nasal septum squamous cell line) were seeded in a collagen-coated cell insert with 0.4 μm pore size and cultured for 2 days to lead the cells to form a cellular monolayer on the insert. The cell insert was then transferred into a 12-well plate with 1.5 mL of Hepes buffer inside. 0.5 mL of Hepes buffer containing pure n-butylidenephthalide or the pharmaceutical composition was added into the 12-well plate. Next, the 12-well plate was placed into an incubator (37° C., 5% CO2) and incubated. The buffer in each well of the 12-well plate was collected every 1 hour (6 hours in total), and the absorption spectrum of the sampled buffer was detected by a spectrophotometer at […] wavelength to calculate the concentration of n-butylidenephthalide or the pharmaceutical composition. The permeability coefficient (Peff) and flux (J) were calculated by using the above Formula 1 and Formula 2.

[5] = In vitro cell line permeation test; assay type: in vitro ADME, human; conditions: human, RPMI 2650 cellular monolayer, 37° C., read-out: Peff ± SD
Protocol: as §1, §2, §3

[6] = In vitro artificial cellulose membrane test (Franz diffusion device); assay type: in vitro ADME; conditions: 37° C., 10 hours
Protocol: A Franz diffusion device (SUNMEI instruments Co., Ltd, Taiwan) shown in FIG. 5 was used to estimate the ability of pure n-butylidenephthalide (BP) liquid and the pharmaceutical compositions to permeate trough the artificial cellulose membrane, to simulate their permeation through a nasal mucosa. The superficial area of diffusion of the device is about 4.5 cm^2, and the capacity volume of receptor chamber of the device is about 23 mL. […]

[7] = Viscosity analysis (AR2000 rheometer); assay type: physicochemical
Protocol: The viscosity analysis was performed by measuring the relationship of viscosity of a sample to shear rate and rheological property of the sample using AR2000 rheometer (stress control) (from TA Instruments; measuring mold: cone and plate; amount of sample: 1 mL).

[8] = Droplet size, electrical conductivity and zeta potential analyses; assay type: physicochemical; conditions: sample with n-butylidenephthalide 200 μg/mL
Protocol: The pharmaceutical composition was formulated to provide a sample in which the concentration of n-butylidenephthalide is 200 μg/mL. The droplet size, electrical conductivity and zeta potential of the sample were analyzed using a high concentration nano-droplet size and zeta potential meter (Malvern Nano-ZS ZEN-3600).

[9] = Room-temperature stability test: appearance of the composition; assay type: physicochemical; conditions: PBS
Protocol: The stability study of the pharmaceutical composition was performed by: (1) observing the appearance of the pharmaceutical composition after storage at room temperature for 3 or 7 days, and classifying the results into “V” (if the pharmaceutical composition remained homogeneous) and “X” (if the pharmaceutical composition separated into two layers or had precipitation) to evaluate the appearance stability; and (2) analyzing the purity of n-butylidenephthalide by measuring the impurities in the pharmaceutical composition through relative retention time (RRT) using a LCMS instrument with the following conditions.

In the case of CCCC=C1OC(=O)c2ccccc21 [Pure BP, n-butylidenephthalide], the Growth of tumor ([1]; 160 mg/kg or 320 mg/kg, compared to control group) is reported as “effective in inhibiting the growth of tumor”, the Survival rate ([1]; 160 mg/kg, 30 days) is reported as “significantly increased and similar survival rates” and the “Volume and weight of tumor” value ([1]; 160 mg/kg, 30 days) is reported as “significantly reduced and similar volume and weight of tumor”. The IC50 [2] was 70 µg/mL (≈ 0.372 mM), the solubility ([3]; in ethanol) was > 222 mg/mL and the solubility ([3]; in polyethylene glycol 400, polyethylene glycol 300 or polypropylene glycol) was 70 to 120 mg/mL (≈ 372 to 638 mM). The “Flux ± SD” value [4] was 0.32 ± 0.02 10^−3 μg/cm^2 · s, the Papp at 6 h [5] was 1.59 ± 0.09 ×10⁻⁶ cm/s and the “Flux ± SD” value [6] was 2.29 ± 0.23 10^−3 μg/cm^2 · s. The “Peff ± SD” value [6] was 0.76 ± 0.08 10^−6 cm/s, the “Average viscosity ± SD” value ([7]; cone and plate, 1 mL sample) was 1.57 ± 0.01 ×10^−2 Pa · s and the “Rheological property (Newtonian or non-Newtonian fluid)” value ([7]; viscosity versus shear rate) was “Newtonian fluids”. The Electrical conductivity [8] was 0.02 mS/cm, the Zeta potential [8] was 0.38 mV and the “Amount stable in the medium system” value ([9]; polyethoxylated castor oil, and ethanol with polypropylene glycol) was “up to 208 mg/mL”. The “Amount stable in the medium system” value ([9]; polyethoxylated castor oil, and polyethylene glycol with dimethyl sulfoxide or with ethanol (Examples 1, 5 and 6)) was “up to 1000 mg/mL”.
